{"source": "paper PMC6661809", "about": "“Lead optimization for promising monoamine oxidase inhibitor from eugenol for the treatment of neurological disorder: synthesis and in silico based study” (BMC Chemistry, 2019)", "key": {"rat MAO-B [1]": {"system": "rat MAO-B", "parameters": "method as in PMID 28771213", "details": "Table 1, literature overview; cited from earlier work"}, "rat MAO-A [2]": {"system": "rat MAO-A", "parameters": "method as in PMID 28771213", "details": "Table 1, literature overview; cited from earlier work"}, "rat MAO-A [3]": {"molecular_target": "rat MAO-A", "details": "mitochondrial rat brain; cited from earlier work"}, "[4]": {"assay": "Nitric oxide scavenging activity", "details": "Table 8, mean ± SEM, n = 3", "excerpt": "The generation of nitric oxide (NO·) on biological tissues is mediated by particular nitric oxide synthases enzyme that control the catabolism of the arginine to citrulline via creation of NO through a five electron oxidative reaction. At the physiological pH (7.2) in aqueous solution sodium nitroprusside decompose to produce NO·. Finally, NO· reacts with oxygen at underaerobic conditions and produces stable products (nitrate and nitrite), this amount can be determined by means of Griess reagent. The procedure for the nitric oxide scavenging activity was adopted from reports of Alam et al.."}, "MAO B": {"molecular_target": "MAO B", "parameters": "method as in PMID 21190052", "details": "cited from earlier work"}, "mice [5]": {"system": "mice", "parameters": "method as in PMID 28771213", "details": "repeated administration, dose-dependent; cited from earlier work"}, "rat MAO-B [6]": {"molecular_target": "rat MAO-B", "details": "mitochondrial rat brain; cited from earlier work"}, "[7]": {"assay": "Ferric reducing antioxidant power (FRAP) assay;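 also: Ferrous-TPTZ reduction read as absorbance at 593 nm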", "details": "Table 9, mean ± SEM, n = 3", "protocol": "The capacity of antioxidants to decrease ferric iron is measured by this method. The reaction of […] (TPTZ) and complex ferric iron yields ferrous form at low pH. […] This method was adopted from the reports of Benzie et al.."}, "DPPH scavenging activity": {"assay": "DPPH scavenging activity", "details": "Table 6, mean ± SEM, n = 3", "protocol": "Solutions of synthesized compounds were set in ethanol/water (1:1) having 10 mM to 100 mM at a period of 10 mM. The 0.01% DPPH· stock solution was prepared in ethanol/water (1:1). Samples were prepared as 5 mL DPPH· solution was mixed with 5 mL L-ascorbic acid solution then shaken vigorously and kept in the dark. Corresponding blank sample were prepared and L-ascorbic acid was used as reference standard. […] The actual decrease in absorption induced by the test was compared with the positive controls. The IC50 values were calculated use the dose inhibition curve in linear range by plotting the extract concentration versus the corresponding scavenging effect through following equation [(ADR − APR)/AO] × 100. Where ADR is the absorbance prior to reaction and APR is the absorbance after reaction with DPPH·."}, "[8]": {"assay": "Hydrogen peroxide scavenging (H2O2) assay", "details": "Table 7, mean ± SEM, n = 3", "protocol": "Hydrogen peroxide generally turns into water and oxygen and produces highly toxic hydroxyl radical that renders the damage to DNA and peroxidation of lipid. H2O2 scavenging ability of eugenol based derivatives was evaluated by method described by Nakano and colleagues with some alteration. The hydrogen peroxide solution (40 mM) was prepared in phosphate buffer (40 mM pH 7.4) and addition of several ranges of synthesized derivatives (05–80 μg/mL) was done into H2O2 solution (2 mL). The determination of H2O2 concentration was done by UV/Vis Epoch ELISA reader at 230 nm upon incubation of 10 min. Solution of phosphate buffer without H2O2 was noted as blank reading. The hydrogen peroxide percentage inhibition was estimated through the formula [(AH − AD)/AO] × 100, where AH is the absorbance of the control and AD is the absorbance of compounds/reference taken as 05–80 μg/mL L-ascorbic acid."}, "mice [9]": {"system": "mice", "parameters": "method as in PMID 28771213", "details": "cited from earlier work"}, "hMAO-A": {"molecular_target": "T1, hMAO-A (Homo sapiens, UniProt P21397)", "T1 construct": "purchased Sigma-Aldrich; host or cells: insect cells (BTI-TN-5B14) infected with recombinant baculovirus", "T1 sequence (P21397 1-527)": "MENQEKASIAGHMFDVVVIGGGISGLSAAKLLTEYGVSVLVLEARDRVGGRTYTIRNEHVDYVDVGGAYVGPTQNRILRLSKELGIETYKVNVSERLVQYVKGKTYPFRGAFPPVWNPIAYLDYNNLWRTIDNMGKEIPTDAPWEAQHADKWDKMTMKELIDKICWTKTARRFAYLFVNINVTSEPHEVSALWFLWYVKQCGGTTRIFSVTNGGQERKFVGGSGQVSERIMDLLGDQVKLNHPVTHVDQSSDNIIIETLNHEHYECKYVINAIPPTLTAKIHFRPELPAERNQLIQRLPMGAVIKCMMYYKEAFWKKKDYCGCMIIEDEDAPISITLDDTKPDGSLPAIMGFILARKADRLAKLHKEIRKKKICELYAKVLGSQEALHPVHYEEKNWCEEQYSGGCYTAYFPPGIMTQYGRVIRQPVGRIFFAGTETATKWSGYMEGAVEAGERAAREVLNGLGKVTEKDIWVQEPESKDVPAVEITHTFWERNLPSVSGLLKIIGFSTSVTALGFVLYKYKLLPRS", "assay": "Recombinant human MAO-A inhibition screening (Amplex Red, p-tyramine)", "type": "biochemical", "excerpt": "(§1) To evaluate IC50 values for the inhibition of human MAO-A and MAO-B by newly synthesized compounds the commercially available recombinant human enzymes expressed in insect cells were used (Sigma-Aldrich). The MAO inhibition assay was based on the method described by Anderson et al., 1993 and Chimenti et al. with some modifications. The Amplex Red MAO Kit tyramine (Sigma-Aldrich) affords a suitable fluorimetric method to evaluate MAO enzyme action of synthetic and natural compounds. In the assay, MAO reacts with p-tyramine, a common substrate for both MAO isoforms, ensuing in the production of H2O2, which is identified by a fluorimetric method (λex = 530/λem = 585 nm). Each test well contained 0.1 mL of sodium phosphate buffer (0.05 M, pH 7.4), a range of concentrations of the eugenol based derivatives or reference compounds along with recombinant hMAO-A or hMAO-B in appropriate quantity. After the preparation of this mixture the wells were subjected to incubation for 15 min at 37 °C, placed in the dark fluorimeter chamber. Once this incubation period over, the process was rendered by mixing 200 µM Amplex Red reagent (Sigma-Aldrich), 1 U/mL horseradish peroxidase (Sigma-Aldrich) and p-tyramine (Sigma-Aldrich). Subsequently, the formation of hydrogen peroxide exerted by MAO isoforms was quantified by using Amplex-Red reagent, a non-fluorescent probe that reacts with H2O2 in the existence of horse radish peroxidase to generate the fluorescent component resorufin. Moreover, the control analysis was calculated in the absence of compound and reference inhibitors. The probability of compounds to change the fluorescence produced in the reaction mix due to non-enzymatic inhibition was assessed by mixing titled compounds to solutions of single Amplex Red reagent in a sodium phosphate buffer. Data were processed in Microsoft Excel, to calculate IC50 values."}, "hMAO-B [10]": {"molecular_target": "T2, hMAO-B (Homo sapiens, UniProt P27338)", "T2 construct": "purchased Sigma-Aldrich; host or cells: insect cells (BTI-TN-5B14) infected with recombinant baculovirus", "T2 sequence (P27338 1-520)": "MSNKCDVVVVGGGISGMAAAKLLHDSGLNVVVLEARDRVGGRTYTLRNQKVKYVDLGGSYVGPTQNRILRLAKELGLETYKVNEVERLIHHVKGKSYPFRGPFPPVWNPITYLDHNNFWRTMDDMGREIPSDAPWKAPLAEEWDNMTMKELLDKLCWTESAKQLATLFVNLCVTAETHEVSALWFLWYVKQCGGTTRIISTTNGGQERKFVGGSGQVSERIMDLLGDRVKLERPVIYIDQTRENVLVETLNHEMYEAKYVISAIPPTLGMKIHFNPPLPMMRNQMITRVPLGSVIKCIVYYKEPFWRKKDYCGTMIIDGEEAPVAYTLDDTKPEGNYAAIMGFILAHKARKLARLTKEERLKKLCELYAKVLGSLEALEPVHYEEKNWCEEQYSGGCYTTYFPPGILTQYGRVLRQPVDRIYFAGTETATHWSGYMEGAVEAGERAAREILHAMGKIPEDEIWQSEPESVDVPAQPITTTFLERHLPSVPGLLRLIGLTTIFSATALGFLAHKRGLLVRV", "details": "eugenol from Rhizoma acori graminei; cited from earlier work"}, "hMAO-B [11]": {"molecular_target": "T2, hMAO-B", "assay": "Recombinant human MAO-B inhibition screening (Amplex Red, p-tyramine)", "type": "biochemical", "details": "p-tyramine substrate, mean SEM", "excerpt": "as §1"}, "human MAO-A": {"molecular_target": "human MAO-A", "parameters": "method as in PMID 21190052", "details": "competitive inhibitor; cited from earlier work"}, "mice [12]": {"system": "mice", "parameters": "method as in PMID 21190052", "details": "administered for 14 days; cited from earlier work"}, "Swiss mouse": {"system": "Swiss mouse", "parameters": "method as in PMID 28771213", "details": "controls negative and positive (imipramine); cited from earlier work"}}, "data": [{"smiles": "Cc1ccc(C(C)C)cc1O", "note": "[Carvacrol]", "values": [{"measurement": "IC50", "setting": "rat MAO-B [1]", "value": "23.42 ± 0.04", "unit": "µM"}, {"measurement": "IC50", "setting": "rat MAO-A [2]", "value": "15.6 ± 0.49", "unit": "µM"}]}, {"smiles": "C=CCc1ccc(O)c(OC)c1", "note": "[Eugenol]", "values": [{"measurement": "Ki", "setting": "rat MAO-A [3]", "value": 25.7, "unit": "µM"}, {"measurement": "Nitric oxide scavenging IC50", "setting": "[4]", "value": "11.724 ± 0.003", "unit": "µg/mL"}, {"measurement": "IC50", "setting": "rat MAO-B [1]", "value": "24 ± 1.32", "unit": "µM"}, {"measurement": "Ki", "setting": "MAO B", "value": 211, "unit": "µM"}, {"measurement": "Immobility in the FST and tail suspension test (TST)", "setting": "mice [5]", "value": "decreased immobility"}, {"measurement": "Ki", "setting": "rat MAO-B [6]", "value": 79.9, "unit": "µM"}, {"measurement": "FRAP IC50", "setting": "[7]", "value": "10.627 ± 0.082", "unit": "µg/mL"}, {"measurement": "DPPH scavenging IC50", "setting": "DPPH scavenging activity", "value": "10.29 ± 0.011", "unit": "µg/mL"}, {"measurement": "H2O2 scavenging IC50", "setting": "[8]", "value": "9.980 ± 0.012", "unit": "µg/mL"}, {"measurement": "LD50", "setting": "mice [9]", "value": 4500, "unit": "mg/kg"}, {"measurement": "Selectivity index", "setting": "hMAO-A; IC50 (MAO-A)/IC50 (MAO-B)", "value": 1.24}, {"measurement": "IC50", "setting": "hMAO-A; recombinant hMAO-A, p-tyramine substrate, mean SEM", "value": "16.54 ± 0.045", "unit": "µM"}, {"measurement": "Ki", "setting": "hMAO-B [10]", "value": 15, "unit": "µM"}, {"measurement": "IC50", "setting": "hMAO-B [11]", "value": "13.3 ± 0.037", "unit": "µM"}, {"measurement": "IC50", "setting": "rat MAO-A [2]", "value": "5.34 ± 0.065", "unit": "µM"}, {"measurement": "Ki", "setting": "human MAO-A", "value": 25, "unit": "µM"}, {"measurement": "Forced swim test (FST) score", "setting": "mice [12]", "value": "significantly increased"}]}, {"smiles": "C=CCc1ccc(O)c(-c2ccc(O)c(CC=C)c2)c1", "note": "[Honokiol]", "values": [{"measurement": "Ki", "setting": "rat MAO-A [3]", "value": 38.2, "unit": "µM"}, {"measurement": "Ki", "setting": "rat MAO-B [6]", "value": 54.6, "unit": "µM"}]}, {"smiles": "C=CCc1ccc(O)c(-c2cc(CC=C)ccc2O)c1", "note": "[Magnolol]", "values": [{"measurement": "Ki", "setting": "rat MAO-A [3]", "value": 35.4, "unit": "µM"}, {"measurement": "Ki", "setting": "rat MAO-B [6]", "value": 49.3, "unit": "µM"}]}, {"smiles": "CC1CCC(C(C)C)C(O)C1", "note": "(centres unmarked) [Menthol]", "values": [{"measurement": "IC50", "setting": "rat MAO-B [1]", "value": "37.4 ± 0.76", "unit": "µM"}, {"measurement": "IC50", "setting": "rat MAO-A [2]", "value": "23.1 ± 0.35", "unit": "µM"}]}, {"smiles": "C=CCc1ccc(OC)c(OC)c1", "note": "[Methyl-eugenol]", "values": [{"measurement": "IC50", "setting": "rat MAO-B [1]", "value": "43.23 ± 0.054", "unit": "µM"}, {"measurement": "IC50", "setting": "rat MAO-A [2]", "value": "7.12 ± 0.46", "unit": "µM"}]}, {"smiles": "COc1ccc(C(C)=O)c(O)c1", "note": "[Paeonol]", "values": [{"measurement": "Ki", "setting": "rat MAO-A [3]", "value": 51.1, "unit": "µM"}, {"measurement": "Ki", "setting": "rat MAO-B [6]", "value": 54.6, "unit": "µM"}]}, {"smiles": "COc1cc(C=O)ccc1O", "note": "[Vanillin]", "values": [{"measurement": "Observations in behavioral test (FST)", "setting": "Swiss mouse", "value": "Controls: negative and positive (imipramine) The treatment reduced the spontaneous locomotion"}, {"measurement": "IC50", "setting": "rat MAO-B [1]", "value": "45.34 ± 0.09", "unit": "µM"}, {"measurement": "IC50", "setting": "rat MAO-A [2]", "value": "17.88 ± 0.16", "unit": "µM"}]}]}
